From US11008355B2, “Crystal of 3'-sialyllactose sodium salt n-hydrate, and process for producing same” (KYOWA HAKKO BIO CO., LTD., priority 2016, dated 2021)
Like-named read-outs stand apart in the source and are kept apart here.

How the values were obtained:
[1] = pH of aqueous solution of the crystal; assay type: physicochemical; conditions: aqueous solution at 50 g/L as a crystal of 3SL sodium salt 8.0-hydrate
Description: As for the pH, an aqueous solution at 50 g/L as a crystal of 3SL sodium salt 8.0-hydrate was measured. The melting point was measured using Melting Point M-565 (manufactured by BUCHI Corporation) under a condition of 50° C. to 200° C. and 0.5° C./min according to the instruction book.

[2] = 30° C., relative humidity of 80%; for Change in weight with lapse of time (in words): up to 8 hours
Description: Storage conditions: 30° C., relative humidity of 80% (apparatus: THE051FA, manufactured by Advantec Toyo Kaisha Ltd.)
Measurement method: After about 100 mg of a sample was weighed with a precision balance, the sample was packed in a glass container and stored under the above-mentioned conditions. Thereafter, the sample was weighed again, and the weight change ratio was calculated.
Incidentally, the weight of the sample at each elapsed time was measured by assuming the weight of each sample at the start of the test to be 100%.

[3] = 50° C., relative humidity of 50%, HPLC, wt %
Description: Storage conditions: 50° C., relative humidity of 50% (adjusted with saturated sodium bromide solution)
Measurement method: About 5 g of a sample was weighed with a precision balance, the sample was packed in a glass container, and the amount of impurities (glucose, lactose, sialic acid) after heating was evaluated by HPLC (“%” in Table 5 represents “wt %”).

Compound | pH [1] | Change in weight with lapse of time (in words) [2] | Weight of sample (weight at start of test = 100%) ([2]; elapsed time 0 hours) | Weight of sample (weight at start of test = 100%) ([2]; elapsed time 0.5 hours) | Weight of sample (weight at start of test = 100%) ([2]; elapsed time 2.5 hours) | Weight of sample (weight at start of test = 100%) ([2]; elapsed time 8 hours) | Glucose (impurity amount) ([3]; elapsed days 0) | Lactose (impurity amount) ([3]; elapsed days 0) | Sialic acid (impurity amount) ([3]; elapsed days 0) | Glucose (impurity amount) ([3]; elapsed days 2) | Lactose (impurity amount) ([3]; elapsed days 2) | Sialic acid (impurity amount) ([3]; elapsed days 2) | Glucose (impurity amount) ([3]; elapsed days 4) | Lactose (impurity amount) ([3]; elapsed days 4) | Sialic acid (impurity amount) ([3]; elapsed days 4)
CC(=O)NC1C(O)CC(OC2C(O)C(CO)OC(OC3C(CO)OC(O)C(O)C3O)C2O)(C(=O)[O-])OC1C(O)C(O)CO.O.O.O.O.O.O.O.O.[Na+] (centres unmarked) [Example 2, 3SL sodium salt 8.0-hydrate] | 6.00 | almost no change in weight | 100.0% | 100.2% | 99.9% | 99.9% | 0.03% | 0.01% | 0.08% | 0.04% | 0.01% | 0.10% | 0.04% | 0.02% | 0.09%
CC(=O)N[C@H]1[C@H]([C@H](O)[C@H](O)CO)O[C@@](O[C@H]2[C@@H](O)[C@@H](CO)O[C@@H](O[C@H]3[C@H](O)[C@@H](O)C(O)O[C@@H]3CO)[C@@H]2O)(C(=O)[O-])C[C@@H]1O.[Na+] (some centres unmarked) [Freeze-dried product, amorphous 3SL sodium, reference compound] | – | – | – | – | – | – | 0.11% | 0.02% | 0.14% | 0.14% | 0.03% | 0.21% | 0.16% | 0.07% | 0.26%
CC(=O)N[C@H]1[C@H]([C@H](O)[C@H](O)CO)O[C@@](O[C@H]2[C@@H](O)[C@@H](CO)O[C@@H](O[C@H]3[C@H](O)[C@@H](O)C(O)O[C@@H]3CO)[C@@H]2O)(C(=O)[O-])C[C@@H]1O.[Na+] (some centres unmarked) [amorphous, 3SL sodium reagent, reference compound] | – | increase in weight | 100.0% | 123.1% | 130.5% | 130.4% | – | – | – | – | – | – | – | – | –
